Laboratory results as given in PubChem BioAssay AID330 (DTP/NCI, 2004).
Where “and” joins values, the source holds several entries; their conditions need not be identical. Identical values can stand only once. Toxic doses and inconclusive results are not listed. How the source made its calls: active means survival T/C of 150% or more; inactive means T/C below 125% in these data. Square brackets hold non-standard residues; d marks the D form. Peptide text beside a SMILES is read from it. Abu = CC[CH](N)C(=O)O

Test system: P388 leukemia ip, CD2F1 mice, survival T/C
Assay: NCI In Vivo Anticancer Drug Screen. Data for tumor model P388 Leukemia (intraperitoneal) in CD2F1 (CDF1) mice
Details: endpoint: median survival time, higher = longer survival
Summary of the method: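 Mice carrying the transplanted tumor received test compound or vehicle. Survival was recorded in each group, and the value is the treated-group measurement divided by that of the vehicle-treated control group.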

[1] = dose: 50.0 mg/kg/injection, schedule: Q01DX009 (ip), vehicle: saline with Tween-80
[2] = dose: 100.0 mg/kg/injection, schedule: Q01DX009 (ip), vehicle: saline with Tween-80
[3] = dose: 200.0 mg/kg/injection, schedule: Q01DX009 (ip), vehicle: saline with Tween-80
[4] = dose: 60.0 mg/kg/injection, schedule: Q01DX005 (ip), vehicle: saline with Tween-80
[5] = dose: 120.0 mg/kg/injection, schedule: Q01DX005 (ip), vehicle: saline with Tween-80
[6] = dose: 50.0 mg/kg/injection, schedule: Q01DX005 (ip), vehicle: saline with Tween-80
[7] = dose: 100.0 mg/kg/injection, schedule: Q01DX005 (ip), vehicle: saline with Tween-80
[8] = dose: 200.0 mg/kg/injection, schedule: Q01DX005 (ip), vehicle: saline with Tween-80
[9] = dose: 240.0 mg/kg/injection, schedule: Q01DX005 (ip), vehicle: saline with Tween-80
[10] = dose: 50.0 mg/kg/injection, schedule: Q01DX005 (ip), vehicle: Klucel (hydroxypropylcellulose) (HPC)
[11] = dose: 100.0 mg/kg/injection, schedule: Q01DX005 (ip), vehicle: Klucel (hydroxypropylcellulose) (HPC)
[12] = dose: 200.0 mg/kg/injection, schedule: Q01DX005 (ip), vehicle: Klucel (hydroxypropylcellulose) (HPC)

Measured: T/C

COC(=O)c1ccn2c1CCC2
inactive: dose: 25.0 mg/kg/injection, schedule: Q01DX009 (ip), vehicle: Klucel (hydroxypropylcellulose) (HPC) 91 % of control | dose: 50.0 mg/kg/injection, schedule: Q01DX009 (ip), vehicle: Klucel (hydroxypropylcellulose) (HPC) 91 % of control | dose: 100.0 mg/kg/injection, schedule: Q01DX009 (ip), vehicle: Klucel (hydroxypropylcellulose) (HPC) 95 % of control | dose: 200.0 mg/kg/injection, schedule: Q01DX009 (ip), vehicle: Klucel (hydroxypropylcellulose) (HPC) 98 % of control | dose: 400.0 mg/kg/injection, schedule: Q01DX009 (ip), vehicle: Klucel (hydroxypropylcellulose) (HPC) 91 % of control

O=c1oc(-c2ccccc2)cc(N(c2ccccc2)c2ccccc2)c1Cl
inactive: [1] 93 % of control | [2] 93 % of control | [3] 95 % of control

CCCCCCC(C)NCC(O)COc1cccc(C)c1 (stereo not drawn)
inactive: dose: 3.12 mg/kg/injection, schedule: Q01DX009 (ip), vehicle: Klucel (hydroxypropylcellulose) (HPC) 111 % of control | dose: 6.25 mg/kg/injection, schedule: Q01DX009 (ip), vehicle: Klucel (hydroxypropylcellulose) (HPC) 107 % of control | dose: 12.5 mg/kg/injection, schedule: Q01DX009 (ip), vehicle: Klucel (hydroxypropylcellulose) (HPC) 111 % of control

COC1C(O)CC(OC2CC(OC3CC(O[C@@H]4C(=O)c5c(cc6cc(OC7CC(OC8CC(O)C(O)C(C)O8)C(O)C(C)O7)c(C)c(O)c6c5O)C[C@H]4[C@H](OC)C(=O)[C@@H](O)[C@@H](C)O)OC(C)C3O)OC(C)C2O)OC1C (stereo partly drawn)
active: dose: 1500.0 micrograms/kg/injection, schedule: Q01DX009 (ip), vehicle: saline 170 % of control
inactive: dose: 375.0 micrograms/kg/injection, schedule: Q01DX009 (ip), vehicle: saline 121 % of control

Cc1cccn2cnnc12
inactive: dose: 50.0 mg/kg/injection, schedule: Q01DX009 (ip), vehicle: saline 119 % of control | dose: 100.0 mg/kg/injection, schedule: Q01DX009 (ip), vehicle: saline 119 % of control | dose: 200.0 mg/kg/injection, schedule: Q01DX009 (ip), vehicle: saline 117 % of control

CC1=Nc2nc(=N)nc3cccc(n23)N1
inactive: [4] 95 % of control | [5] 104 % of control

COC(C(=O)C(O)C(C)O)C1CC2C=C3C=C(OC4CC(OC5CC(O)C(OC)C(C)O5)C(OC(C)=O)C(C)O4)C(C)C(=O)C3=C(O)C2=C(O)C1OC1CC(OC2CC(OC3CC(C)(O)C(OC(=O)C(C)C)C(C)O3)C(O)C(C)O2)C(O)C(C)O1 (stereo not drawn)
active: dose: 1.0 micrograms/kg/injection, schedule: Q01DX010 (ip), vehicle: saline 150 % of control | dose: 4.0 micrograms/kg/injection, schedule: Q01DX010 (ip), vehicle: saline 165 % of control | dose: 8.0 micrograms/kg/injection, schedule: Q01DX010 (ip), vehicle: saline 175 % of control | dose: 16.0 micrograms/kg/injection, schedule: Q01DX010 (ip), vehicle: saline 155 % of control

c1ccc2c(c1)Sc1ccccc1C2=C1c2ccccc2Sc2ccccc21
inactive: [6] 88 % of control | [7] 90 % of control | [8] 88 % of control

CCOC(=O)C(N=Nc1ccccc1)/N=N\c1nn[nH]n1 (stereo not drawn)
inactive: dose: 50.0 mg/kg/injection, schedule: Q01DX001 (ip), vehicle: Klucel (hydroxypropylcellulose) (HPC) 91 % of control | dose: 100.0 mg/kg/injection, schedule: Q01DX001 (ip), vehicle: Klucel (hydroxypropylcellulose) (HPC) 91 % of control | dose: 200.0 mg/kg/injection, schedule: Q01DX001 (ip), vehicle: Klucel (hydroxypropylcellulose) (HPC) 91 % of control

Cc1ccc(NCN2C(=O)c3ccccc3C2=O)c(C)n1
inactive: dose: 60.0 mg/kg/injection, schedule: Q01DX005 (ip), vehicle: Klucel (hydroxypropylcellulose) (HPC) 92 % of control | dose: 120.0 mg/kg/injection, schedule: Q01DX005 (ip), vehicle: Klucel (hydroxypropylcellulose) (HPC) 89 % of control

Cn1c(N)c(N=Nc2cccnc2)c(=O)n(C)c1=O
inactive: dose: 100.0 mg/kg/injection, schedule: Q01DX001 (ip), vehicle: saline with Tween-80 95 % of control | dose: 200.0 mg/kg/injection, schedule: Q01DX001 (ip), vehicle: saline with Tween-80 98 % of control | dose: 400.0 mg/kg/injection, schedule: Q01DX001 (ip), vehicle: saline with Tween-80 95 % of control

COC(=O)C(C)NC(=O)C(Cc1c[nH]c2ccccc12)NC(=O)OC(C)(C)C (stereo not drawn)
inactive: dose: 12.5 mg/kg/injection, schedule: Q01DX009 (ip), vehicle: other 88 % of control | dose: 25.0 mg/kg/injection, schedule: Q01DX009 (ip), vehicle: other 89 % of control | dose: 50.0 mg/kg/injection, schedule: Q01DX009 (ip), vehicle: other 100 % of control | dose: 100.0 mg/kg/injection, schedule: Q01DX009 (ip), vehicle: other 101 % of control | dose: 200.0 mg/kg/injection, schedule: Q01DX009 (ip), vehicle: other 117 % of control

CNc1ncn(-c2c(C)cccc2C)c(=O)n1
inactive: [4] 101 % of control and 106 % of control | [5] 108 % of control | [9] 117 % of control

CCOc1ccc(/C=N/NC(=O)C(O)c2ccccc2)cc1OC (stereo not drawn)
inactive: [4] 96 % of control | [5] 100 % of control | [9] 94 % of control

Cc1cc2c(C(C)C)c(O)c(O)c(C=NC3CCCCC3)c2c(O)c1-c1c(C)cc2c(C(C)C)c(O)c(O)c(C=NC3CCCCC3)c2c1O
inactive: dose: 12.5 mg/kg/injection, schedule: Q01DX005 (ip), vehicle: saline with Tween-80 103 % of control | dose: 25.0 mg/kg/injection, schedule: Q01DX005 (ip), vehicle: saline with Tween-80 92 % of control | [6] 88 % of control

COc1cccc2c1C(=O)c1c(O)c3c(c(O)c1C2=O)C[C@@](O)(C(C)=O)C[C@@H]3OC1CC(N)C(C(C)O)O1 (stereo partly drawn)
inactive: dose: 3.12 mg/kg/injection, schedule: Q04DX003 (ip), vehicle: distilled water + Tween-80 117 % of control and 101 % of control | dose: 6.25 mg/kg/injection, schedule: Q04DX003 (ip), vehicle: distilled water + Tween-80 112 % of control and 92 % of control | dose: 12.5 mg/kg/injection, schedule: Q04DX003 (ip), vehicle: distilled water + Tween-80 114 % of control and 104 % of control | dose: 25.0 mg/kg/injection, schedule: Q04DX003 (ip), vehicle: distilled water + Tween-80 117 % of control and 111 % of control | dose: 50.0 mg/kg/injection, schedule: Q04DX003 (ip), vehicle: distilled water + Tween-80 117 % of control | dose: 100.0 mg/kg/injection, schedule: Q04DX003 (ip), vehicle: distilled water + Tween-80 119 % of control

O=C(NC(=O)c1c(F)cccc1F)Nc1ccc(C(O)(C(F)(F)F)C(F)(F)F)cc1
inactive: [6] 102 % of control | [7] 100 % of control | [8] 109 % of control

c1ccc2c(SCCOCCSc3c4ccccc4nc4ccccc34)c3ccccc3nc2c1
inactive: [4] 98 % of control | [5] 92 % of control | [9] 90 % of control

OC1=CC(=S)NC(c2ccccc2)C1 (stereo not drawn)
inactive: [10] 99 % of control | [11] 106 % of control | [12] 108 % of control

CCC(NCC(C)C)NCC(C)C
inactive: dose: 25.0 mg/kg/injection, schedule: Q04DX003 (ip), vehicle: saline 100 % of control | dose: 50.0 mg/kg/injection, schedule: Q04DX003 (ip), vehicle: saline 109 % of control | dose: 100.0 mg/kg/injection, schedule: Q04DX003 (ip), vehicle: saline 95 % of control

Cc1ccc(NC(=O)/C=C2\CONC(c3ccccc3)=N2)cc1
inactive: [4] 91 % of control | [5] 91 % of control

CC(NC(=O)OCc1ccccc1)C(=O)NC(C(=O)O)C(C)O (stereo not drawn)
inactive: [10] 98 % of control | [11] 99 % of control | [12] 96 % of control

O=C1Cc2cccc3cccc1c23
inactive: dose: 25.0 mg/kg/injection, schedule: Q01DX009 (ip), vehicle: saline with Tween-80 90 % of control | [1] 104 % of control | [2] 96 % of control | [3] 111 % of control

Cc1cc(Cl)ccc1NC(=O)C1C(=O)CC(C)(C)CC1=O
inactive: [6] 93 % of control | [7] 101 % of control | [8] 111 % of control

CCCCNC(=O)OCc1ccc(NCCN(CC)CC)c2c(=O)c3ccccc3sc12
inactive: dose: 1.56 mg/kg/injection, schedule: Q01DX005 (ip), vehicle: distilled water + Tween-80 105 % of control and 97 % of control | dose: 3.12 mg/kg/injection, schedule: Q01DX005 (ip), vehicle: distilled water + Tween-80 102 % of control and 112 % of control and 119 % of control | dose: 6.25 mg/kg/injection, schedule: Q01DX005 (ip), vehicle: distilled water + Tween-80 101 % of control and 111 % of control

CCC(N)C(=O)NC(CO)C(=O)O (stereo not drawn) (H-[Abu]-Ser-OH; configuration not given here)
inactive: dose: 50.0 mg/kg/injection, schedule: Q01DX005 (ip), vehicle: saline 106 % of control | dose: 100.0 mg/kg/injection, schedule: Q01DX005 (ip), vehicle: saline 109 % of control | dose: 200.0 mg/kg/injection, schedule: Q01DX005 (ip), vehicle: saline 106 % of control
